Data taken from patent US12616759B2, “Uses of labeled HSP90 inhibitors” (Sloan-Kettering Institute for Cancer Research, priority 2011, dated 2026).

How the values were obtained:
MDA-MB-468 tumors = assay: PU-H71 tumor concentration predicted from [^124I]-PU-H71 PET (equation 1a, simulations)
[1] = as above; conditions: mouse, tumor (MDA-MB-468), 75 mg/kg
HSP90 [2] = assay: fluorescence polarization HSP90 binding assay using SKBr3 cancer cell lysate
oncogenic HSP90 = assay: PU-H71-FITC2 binding to pancreatic and breast cancer cell lines relative to HL-60 versus viability
[3] = test system: Akt, onco-proteins in MDA-MB-468 tumors; assay: pharmacodynamic Western blot of MDA-MB-468 tumors; type: in vivo, mice
Experimental: Pharmacodynamic analyses. For protein analysis, tumors were homogenized in SDS lysis buffer (50 mM Tris, pH 7.4, 2% SDS) and subjected to Western blot analysis. Protein concentrations were determined using the BCA kit (Pierce) according to the manufacturer's instructions. Protein lysates (20-100 μg) were electrophoretically resolved by SDS/PAGE, transferred to nitrocellulose membrane, and probed with the indicated primary antibodies: Anti-Hsp90 from mouse (1:500, SPA-830; Stressgen), anti-Akt from rabbit (1:500, 9272; Cell Signaling), anti-phospho-Akt (Ser 473) from rabbit (1:500, 9271S; Cell Signaling), anti-PARP (p85 fragment) from rabbit (1:250, G7341; Promega). Membranes were then incubated with a 1:5,000 dilution of a peroxidase-conjugated corresponding secondary antibody. Equal loading of the protein samples was confirmed by parallel Western blots for β-actin (1:5,000, ab8227-50; Abcam). Detection was performed using the ECL Enhanced Chemiluminescence Detection System (Amersham Biosciences) according to the manufacturer's instructions.

caspase-3,7 = assay: caspase 3,7 activation assay; type: cell-based
Experimental: Caspase 3,7 Activation Assay: Cells were plated and treated as described in the growth inhibition assay section. Following a 24 h or 48 h exposure of cells to Hsp90 inhibitors, 100 μL buffer containing 10 mM Hepes, pH 7.5, 2 mM EDTA, 0.1% CHAPS, 0.1 mg/mL PMSF, Complete Protease Inhibitor mix (#1697498; Roche), and the caspase substrate Z-DEVD-R110 (#R22120; Molecular Probes) at 25 μM was added to each well. Plates were placed on an orbital shaker to promote cell lysis and reaction. The fluorescence signal of each well was measured in an Analyst GT (Molecular Dev ices) microplate reader (excitation 485 nm; emission at 530 nm). The percentage increase in caspase-3,7 activity was calculated by comparison of the fluorescence reading obtained from treated versus control cells. All experimental data were analyzed using SOFTmax Pro 4.3.1 and plotted using Prism 4.0 (Graphpad Software Inc., San Diego, CA).

circulating tumor cells = assay: number of circulating tumor cells in blood of patient after PU-H71; type: in vivo, human; conditions: 24 h after 20 mg/m2
Text: Circulating tumor cells (CTCs) are cells that have detached from a primary tumor and circulate in the bloodstream. CTCs may constitute seeds for subsequent growth of additional tumors (metastasis) in different tissues.

HSP90 [4] = type: binding
[5] = 5 mg/kg 3×week, 24 h after last dose

CC(C)NCCCn1c(Sc2cc3c(cc2I)OCO3)nc2c(N)ncnc21 [PU-H71]
tumor concentration of PU-H71 (MDA-MB-468 tumors; 1 mg/kg, 48 h and beyond): less than 0.05 μM | simulated tumor concentration at the time of sacrifice (MDA-MB-468 tumors; [5]): 0.43 µM | [PU-H71tumor]avg (MDA-MB-468 tumors; 75 mg/kg, 1×week): 2.88 µM | [PU-H71tumor]avg (MDA-MB-468 tumors; 75 mg/kg, 2×week): 5.41 µM | [PU-H71tumor]avg (MDA-MB-468 tumors; 75 mg/kg, 3×week): 7.45 µM | tumor concentration from PET or biodistribution studies (MDA-MB-468 tumors; 75 mg/kg, 24 h): 5.51 ± 1.78 µM | concentration at 24 h [1]: 5510 nM | concentration at 72 h [1]: 2180 ± 1780 nM | concentration at 96 h [1]: 2180 nM | EC50 (HSP90 [2]; fluorescence polarization): […] | IC50 (HSP90 [2]; read-out: IC50, affinity for HSP90): […] | sensitivity of HL-60 leukemia cells (oncogenic HSP90): resistant | Akt degradation, decrease [3, 5]: 57% | depletion of onco-proteins, level decrease ([3]; 1×week schedule, 24 h and 96 h after last dose): 95% | increase in caspase-3,7 activation (caspase-3,7; Kasumi-1 and SKNO-1, 24 h): two-fold | increase in caspase-3,7 activation (caspase-3,7; MOLM-13 and MO-91, 24 h): ten-fold | drop in the number of CTCs in the blood (circulating tumor cells): 6 fold | fraction of total cellular HSP90 bound (HSP90 [4]): approximately 30%
